Reference: patent US20070141619A1, “DRUG RESISTANCE-ASSOCIATED GENE AND USE THEREOF” (BANYU PHARMACEUTICAL CO., Ltd., priority 2000, published 2007)

Legend:
ABCG2 [1] = assay: SRB drug sensitivity, PC-13 transfected with ABCG2 (clone 3); assay type: cell-based, human; settings: human; PC-13/ABCG2-3; average ± standard error of three independent experiments
Protocol: (§1) Test cells in the logarithmic growth phase were dispensed into wells of 96-well plate at 1×10^3 cells/well. After subculture for 24 hours in a CO2 incubator, a serial diluted agent was added to each well. After further incubation for 72 hours, the cells were fixed with trichloroacetic acid (TCA) and the proteins in the cells were stained by 0.4% sulforhodamine B solution. The samples were eluted by 10 mM Tris-HCl for 1 hour, and each well was measured at 560 nm with a 450 nm reference, by a SPECTRAmax 250 plate reader (Molecular Devices Corp.).
(§2) PC-13 cells were transfected with the ABCG2 expression plasmids using Effectene Transfection Reagent (QIAGEN). The experiment was performed according to the attached procedural manual. As a control experiment, other PC-13 cells were transfected with vector alone without the ABCG2 sequence. The two experiments were conducted simultaneously. Two days after the transfection, the original media were replaced with selection media containing 0.2 mg/ml of Geneticin (GIBCO BRL). By culture for a long time under this condition, stable transfectant clones with the introduced plasmids were selected. Two weeks from the transfection, emerging colonies were picked and expression of ABCG2 in the cells was examined by Northern Blot analysis.

PC13 = assay: SRB drug sensitivity, PC-13 parental cells; assay type: cell-based; settings: Homo sapiens, 72 hours with agent
HeLaS3 = assay: SRB drug sensitivity, HeLaS3 (Compound-A-sensitive); assay type: cell-based; settings: Homo sapiens, HeLa S3, 72 hours with agent
ABCG2 [2] = assay: SRB drug sensitivity, PC-13 transfected with ABCG2 (clone 2); assay type: cell-based, human; settings: human; PC-13/ABCG2-2; average ± standard error of three independent experiments
Protocol: as §1, §2

PC13/NR13 = assay: SRB drug sensitivity, Compound-A-resistant PC-13/NR13; assay type: cell-based, human; settings: for IC50: Homo sapiens, PC-13, PC13/NR13, SRB, 72 hours with agent; for RR: Relative Resistance: IC50 PC13/NR13 divided by IC50 PC13
LY/NR2 = assay: SRB drug sensitivity, Compound-A-resistant LY/NR2; assay type: cell-based, mouse; settings: for IC50: Mus musculus, LY/NR2, SRB, 72 hours with agent; for RR: Relative Resistance: IC50 LY/NR2 divided by IC50 LY
Text: An emerging colony was isolated as described above and designated as LY/NR2.

HCT116 = assay: SRB drug sensitivity, HCT116 parental cells; assay type: cell-based; settings: Homo sapiens, HCT-116, 72 hours with agent
[3] = system: PC-13 cell lines with introduced ABCG2; assay: SRB drug sensitivity, PC-13 cell lines with introduced ABCG2 (stated jointly); assay type: cell-based, human; settings: PC-13 cell lines with introduced ABCG2, versus vector alone
Protocol: as §1, §2

LY/NR1 = assay: SRB drug sensitivity, Compound-A-resistant LY/NR1; assay type: cell-based, mouse; settings: for IC50: Mus musculus, LY/NR1, SRB, 72 hours with agent; for RR: Relative Resistance: IC50 LY/NR1 divided by IC50 LY
Text: A colony that grew under these conditions was isolated using a cloning ring (Asahi Techno Glass Corporation) and designated as LY/NR1.

PC-13/Vector = assay: SRB drug sensitivity, PC-13 transfected with vector alone; assay type: cell-based; settings: Homo sapiens, average ± standard error of three independent experiments
Protocol: as §1, §2

LY = assay: SRB drug sensitivity, LY parental fibroblasts; assay type: cell-based; settings: Mus musculus, Fibroblast, 72 hours with agent
HeLa#7 = assay: SRB drug sensitivity, spontaneously resistant HeLa#7; assay type: cell-based, human; settings: for IC50: Homo sapiens, HeLa#7, SRB, 72 hours with agent; for RR: Relative Resistance: IC50 HeLa#7 divided by IC50 HeLaS3
HCT116/NR1 = assay: SRB drug sensitivity, Compound-A-resistant HCT116/NR1; assay type: cell-based, human; settings: for IC50: Homo sapiens, HCT-116, HCT116/NR1, SRB, 72 hours with agent; for RR: Relative Resistance: IC50 HCT116/NR1 divided by IC50 HCT116
Text: An emerging colony was isolated and designated as HCT116/NR1.

PC-13/ABCG2-3 = assay: SRB drug sensitivity, PC-13 transfected with ABCG2 (clone 3); assay type: cell-based, human; settings: IC50 PC-13/ABCG2-3 divided by IC50 of vector cells
Protocol: as §1, §2

PC-13/ABCG2-2 = assay: SRB drug sensitivity, PC-13 transfected with ABCG2 (clone 2); assay type: cell-based, human; settings: IC50 PC-13/ABCG2-2 divided by IC50 of vector cells
Protocol: as §1, §2

MCF-7/R7 = assay: SRB drug sensitivity, MCF-7 with introduced ABCG2 of the present invention; assay type: cell-based, human; settings: MCF-7/R7 (ABCG2 of the present invention), FIG. 6
Protocol: (§3) The full length human ABCG2 cDNA of the present invention prepared in Example 5 was inserted into a plasmid for expression in mammalian cells, followed by transfection of human breast cancer cells, MCF-7 cells, with the ABCG2 expression plasmid using Effectene Transfection Reagent (QIAGEN). Likewise, human breast cancer cells, MCF-7 cells, were transfected with a plasmid including the ABCG2-482T cDNA prepared in Example 10. The experiments were carried out according to an attached procedural manual. As a control experiment, the MCF-7 cells were also transfected with vector alone. The three experiments were conducted simultaneously. Two days from the transfection, the original media were replaced with selective media containing 900 μg/ml of Geneticin (GIBCO BRL). By culture over a prolonged term under this condition, stable transfectant clones with introduced plasmid were selected. Two to three weeks from the transfection, emerging colonies were picked and the expression of ABCG2 in the cells was examined by Northern Blot analysis. Northern Blot analysis was performed as described in Example 4: 8 μg of total RNA prepared from each clone using RNeasy mini kit (QIAGEN) was separated on a formaldehyde denatured agarose gel, followed by analysis using the human ABCG2 cDNA fragment of the present invention as a probe.
(§4) The drug sensitivity of the stable transfectant clones which were established from MCF-7 cells with introduced ABCG2- or ABCG2-482T-expression plasmid, was measured using SRB method as described in Example 2 and the sensitivity of each transfectant to drugs was shown as a relative resistance to the cells with introduced vector alone (FIG. 6).

MCF-7/T8 = assay: SRB drug sensitivity, MCF-7 with introduced ABCG2-482T; assay type: cell-based, human; settings: MCF-7/T8 (ABCG2-482T)
Protocol: as §3, §4

## CC[C@@]1(O)C(=O)OCc2c1cc1n(c2=O)Cc2cc3c(CN(C)C)c(O)ccc3nc2-1 [Topotecan]
ABCG2 [1]
  IC50 at 72 h: 96 ± 22 nM
PC13
  IC50: 75 nM
HeLaS3
  IC50: 63 nM
ABCG2 [2]
  IC50 at 72 h: 190 ± 50 nM
PC13/NR13
  IC50: 1100 nM
LY/NR2
  IC50: 2900 nM
HCT116
  IC50: 34 nM
[3]
  resistance of cells in which ABCG2 was forcedly expressed: did not display remarkable resistance
LY/NR1
  IC50: 250 nM
PC-13/Vector
  IC50: 210 ± 40 nM
LY
  IC50: 69 nM
HeLa#7
  IC50: 360 nM

## CC[C@]1(O)C[C@H]2CN(CCc3c([nH]c4ccccc34)[C@@](C(=O)OC)(c3cc4c(cc3OC)N(C=O)[C@H]3[C@@](O)(C(=O)OC)[C@H](OC(C)=O)[C@]5(CC)C=CCN6CC[C@]43[C@@H]65)C2)C1 [Vincristine]
PC13
  IC50: 13 nM
HeLaS3
  IC50: 0.7 nM
PC13/NR13
  IC50: 7 nM
  RR: Relative Resistance: 0.56
HCT116/NR1
  IC50: 9.3 nM
  RR: Relative Resistance: 4.7
LY/NR2
  RR: Relative Resistance: 1.7
  IC50: 25 nM
HCT116
  IC50: 2 nM
LY/NR1
  RR: Relative Resistance: 0.77
  IC50: 11 nM
LY
  IC50: 15 nM
HeLa#7
  IC50: 6.9 nM
  RR: Relative Resistance: 9.9

## CC[C@@]1(O)C(=O)OCc2c1cc1n(c2=O)Cc2cc3ccccc3nc2-1 [Camptothecin]
PC-13/ABCG2-3
  Rel. Res. (relative resistance): 1.2
ABCG2 [1]
  IC50 at 72 h: 52 ± 8 nM
PC13
  IC50: 38 nM
HeLaS3
  IC50: 14 nM
ABCG2 [2]
  IC50 at 72 h: 29 ± 5 nM
PC-13/ABCG2-2
  Rel. Res. (relative resistance): 0.67
PC13/NR13
  IC50: 29 nM
  RR: Relative Resistance: 0.76
HCT116/NR1
  IC50: 17 nM
  RR: Relative Resistance: 1.8
LY/NR2
  RR: Relative Resistance: 8.2
  IC50: 380 nM
HCT116
  IC50: 9.4 nM
[3]
  resistance of cells in which ABCG2 was forcedly expressed: did not display remarkable resistance
LY/NR1
  RR: Relative Resistance: 1.3
  IC50: 58 nM
PC-13/Vector
  IC50: 43 ± 11 nM
LY
  IC50: 46 nM
HeLa#7
  IC50: 38 nM
  RR: Relative Resistance: 2.7

## COc1cccc2c1C(=O)c1c(O)c3c(c(O)c1C2=O)C[C@@](O)(C(C)=O)C[C@@H]3O[C@H]1C[C@H](N)[C@H](O)[C@H](C)O1 [Daunorubicin]
MCF-7/R7
  relative resistance to the cells with introduced vector alone: no resistance
MCF-7/T8; FIG. 6
  relative resistance to the cells with introduced vector alone: 5.1 fold

## COc1cccc2c1C(=O)c1c(O)c3c(c(O)c1C2=O)C[C@@](O)(C(=O)CO)C[C@@H]3O[C@H]1C[C@H](N)[C@H](O)[C@H](C)O1 [Doxorubicin]
PC13
  IC50: 28 nM
HeLaS3
  IC50: 35 nM
MCF-7/R7
  relative resistance to the cells with introduced vector alone: no resistance
MCF-7/T8; FIG. 6, listed as Adriamycin
  relative resistance to the cells with introduced vector alone: 9.6 fold
MCF-7/T8; FIG. 6, listed as adriamycin
  relative resistance to the cells with introduced vector alone: showed resistance
PC13/NR13
  IC50: 70 nM
  RR: Relative Resistance: 2.5
HCT116/NR1
  IC50: 59 nM
  RR: Relative Resistance: 2.3
LY/NR2
  RR: Relative Resistance: 4.5
  IC50: 190 nM
HCT116
  IC50: 25 nM
[3]
  resistance of cells in which ABCG2 was forcedly expressed: not resistant
LY/NR1
  RR: Relative Resistance: 1.6
  IC50: 67 nM
LY
  IC50: 43 nM
HeLa#7
  IC50: 29 nM
  RR: Relative Resistance: 0.81

## COc1cc([C@@H]2c3cc4c(cc3[C@@H](O[C@@H]3O[C@@H]5CO[C@@H](C)O[C@H]5[C@H](O)[C@H]3O)[C@H]3COC(=O)[C@H]23)OCO4)cc(OC)c1O [Etoposide]
PC-13/ABCG2-3
  Rel. Res. (relative resistance): 1.1
ABCG2 [1]
  IC50 at 72 h: 1100 ± 330 nM
PC13
  IC50: 1200 nM
HeLaS3
  IC50: 1200 nM
ABCG2 [2]
  IC50 at 72 h: 460 ± 75 nM
PC-13/ABCG2-2
  Rel. Res. (relative resistance): 0.46
PC13/NR13
  IC50: 3000 nM
  RR: Relative Resistance: 2.5
HCT116/NR1
  IC50: 3400 nM
  RR: Relative Resistance: 3.1
LY/NR2
  RR: Relative Resistance: 4.7
  IC50: 2000 nM
HCT116
  IC50: 1100 nM
[3]
  resistance of cells in which ABCG2 was forcedly expressed: did not display remarkable resistance
LY/NR1
  RR: Relative Resistance: 2.1
  IC50: 520 nM
PC-13/Vector
  IC50: 1000 ± 290 nM
LY
  IC50: 280 nM
HeLa#7
  IC50: 930 nM
  RR: Relative Resistance: 0.79

## CC(=O)O[C@H]1C(=O)[C@@]2(C)[C@H]([C@H](OC(=O)c3ccccc3)[C@]3(O)C[C@H](OC(=O)[C@H](O)[C@@H](NC(=O)c4ccccc4)c4ccccc4)C(C)=C1C3(C)C)[C@]1(OC(C)=O)CO[C@@H]1C[C@@H]2O [Paclitaxel]
PC13
  IC50: 2 nM
HeLaS3
  IC50: 1 nM
PC13/NR13
  IC50: 1.8 nM
  RR: Relative Resistance: 0.92
HCT116/NR1
  IC50: 2.1 nM
  RR: Relative Resistance: 1.9
LY/NR2
  RR: Relative Resistance: 2.0
  IC50: 81 nM
HCT116
  IC50: 1.1 nM
LY/NR1
  RR: Relative Resistance: 1.4
  IC50: 57 nM
LY
  IC50: 41 nM
HeLa#7
  IC50: 4.2 nM
  RR: Relative Resistance: 4.2
